Data on six compounds can be found in patent US3969363A, “Derivatives of 1-phenoxy-3-amino-propan-2-ol and process for their production” (Cassella Farbwerke Mainkur Aktiengesellschaft, priority 1973, dated 1976).

Assay [1] deals with T1, β1-receptors of the heart (Canis lupus familiaris, UniProt P79148).
T1 construct: from tissue; host or cells: heart (left ventricle) of the living anaesthetised mongrel dog
Kind of assay: Blocking of Isoproterenol-induced increase of maximum rate of left-ventricular pressure rise (Dp/dt max.) in anaesthetised dogs (β1-receptor inhibition). It is filed as in vivo, mongrel dogs. To be noted: for ED50: dog, intravenous, 50 % inhibition of reaction to Isoproterenol 0.5 gamma/kg i.v., anaesthetised dogs, read-out: β1-receptor inhibition ED 50; for Relative β1-receptor inhibition (reference substance = 100): relative ED 50, Practolol = 100, lower = more active; for Quotient: ED 50 β2-receptor inhibition / ED 50 β1-receptor inhibition: measure of cardioselective action, higher = better; for Quotient, on basis of reference substance = 1: relative cardioselectivity factor, Practolol = 1. As for the experimental part: (§1) The blocking action of the compounds according to the invention on the β1-receptors of the heart and on the β2-receptors of the cardiovascular system was investigated as follows: the blood pressure in the left-hand ventricle was measured on mongrel dogs of both sexes under anaesthesia by Chloralose-urethane-morphine and the pressure signal was continuously differentiated by means of an analogue computer (BRUSH Instruments, Cleveland/Ohio) and, inter alia, the rate of pressure increase (Dp/dt) was recorded. In addition, the perfusion of a femoral artery was measured by means of an electromagnetic flow meter (Model […] of Messrs. Statham) and the perfusion was recorded in ml/minutes. […] DUNLOP and […]: Selective blockade of adrenoceptive beta-receptors in the heart. Brit. J. Pharmac. Chemother. (1968) 32, 201-218). The substances to be tested for β-receptor blocking were administered intravenously in increasing dosages to the animals, which had been anaesthetised and stimulated by means of Isoproterenol, and the quantity of substance was determined at which a 50 % inhibition of the two reactions caused by Isoproterenol occurred (ED50). […] The higher this quotient is, the better the cardioselective action.

Assay [2] addresses T2, β2-receptors of the cardiovascular system (Canis lupus familiaris, UniProt P54833).
T2 construct: from tissue; host or cells: femoral vascular bed of the living anaesthetised mongrel dog
Kind of assay: Blocking of Isoproterenol-induced alteration of peripheral perfusion of the femoral artery in anaesthetised dogs (β2-receptor inhibition). It is filed as in vivo, mongrel dogs. To be noted: for ED50: dog, intravenous, 50 % inhibition of reaction to Isoproterenol 0.05 gamma/kg intra-arterial, anaesthetised dogs, read-out: β2-receptor inhibition ED 50; for Relative β2-receptor inhibition (reference substance = 100): relative ED 50, Practolol = 100. On the procedure: as §1

T2 sequence (P54833 whole entry): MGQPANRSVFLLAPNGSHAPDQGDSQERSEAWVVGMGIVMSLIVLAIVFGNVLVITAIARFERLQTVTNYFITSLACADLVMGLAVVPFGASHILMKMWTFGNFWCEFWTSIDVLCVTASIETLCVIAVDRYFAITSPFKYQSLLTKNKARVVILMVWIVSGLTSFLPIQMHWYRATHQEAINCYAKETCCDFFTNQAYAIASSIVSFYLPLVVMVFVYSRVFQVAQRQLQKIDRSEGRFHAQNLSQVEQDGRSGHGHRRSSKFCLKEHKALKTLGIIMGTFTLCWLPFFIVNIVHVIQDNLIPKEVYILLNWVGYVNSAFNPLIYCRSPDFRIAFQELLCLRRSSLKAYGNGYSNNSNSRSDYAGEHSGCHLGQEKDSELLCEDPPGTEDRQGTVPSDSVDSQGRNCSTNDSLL
T1 sequence (P79148 whole entry): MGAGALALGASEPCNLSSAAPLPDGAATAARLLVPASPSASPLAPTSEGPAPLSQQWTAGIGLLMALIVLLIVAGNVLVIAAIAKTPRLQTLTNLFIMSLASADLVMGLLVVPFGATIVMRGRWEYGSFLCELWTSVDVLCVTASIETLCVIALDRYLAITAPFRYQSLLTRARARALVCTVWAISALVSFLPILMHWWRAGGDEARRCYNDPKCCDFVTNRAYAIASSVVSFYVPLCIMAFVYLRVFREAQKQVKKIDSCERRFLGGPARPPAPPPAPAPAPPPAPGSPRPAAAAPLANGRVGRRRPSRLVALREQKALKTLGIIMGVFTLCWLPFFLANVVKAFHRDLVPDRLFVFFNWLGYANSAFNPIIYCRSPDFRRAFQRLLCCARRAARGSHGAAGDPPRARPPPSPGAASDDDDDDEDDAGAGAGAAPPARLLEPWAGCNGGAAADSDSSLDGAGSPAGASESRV

`Cc1ccc(C(O)CC(C)NCC(O)COc2ccc(Br)cc2)cn1` (centres unmarked) [1-(4-Bromo-phenoxy)-3-(1-[6-methyl-pyridyl-3]-1-hydroxy-butyl-(3)-amino)-propan-2-ol]: in assay [1], the ED50 is 0.074 mg/kg and the “Relative β1-receptor inhibition (reference substance = 100)” value (“Relative β1-receptor inhibition” for short) was 31.1.

Turning to `CC(=O)Nc1ccc(OCC(O)CNC(C)C)cc1` (centres unmarked) [4-(2-Hydroxy-3-isopropylamino-propoxy)-acetanilide, reference compound], in assay [1], the ED50 was 0.238 mg/kg; the “Quotient: ED 50 β2-receptor inhibition / ED 50 β1-receptor inhibition” value amounted to 110; the “Relative β1-receptor inhibition” value was found to be 100; the “Quotient, on basis of reference substance = 1” value (“Quotient, on basis” for short) is 1. In assay [2], the ED50 came out at 26.5 mg/kg and the “Relative β2-receptor inhibition (reference substance = 100)” value (“Relative β2-receptor inhibition” for short) was determined as 100.

On to `CCCCCOc1ccc(OCC(O)CNC(C)CC(O)c2ccc(C)nc2)cc1` (centres unmarked) [1-(4-n-Pentyloxy-phenoxy)-3-(1-[6-methyl-pyridyl-3]-1-hydroxy-butyl-(3)-amino)-propan-2-ol], for which, in assay [1], the ED50 was 0.057 mg/kg; the “Quotient: ED 50 β2-receptor inhibition / ED 50 β1-receptor inhibition” value was found to be 136; the “Relative β1-receptor inhibition” value came out at 29.9; the “Quotient, on basis” value is 1.2. Also, in assay [2], the ED50 was 7.74 mg/kg and the “Relative β2-receptor inhibition” value is on record as 29.2.

With `CCCOc1ccc(OCC(O)CNC(C)CC(O)c2ccc(C)nc2)cc1` (centres unmarked) [1-(4-n-Propoxy-phenoxy)-3-(1-[6-methyl-pyridyl-3]-1-hydroxy-butyl-(3)-amino)-propan-2-ol], in assay [1], the ED50 worked out at 0.011 mg/kg; the “Quotient: ED 50 β2-receptor inhibition / ED 50 β1-receptor inhibition” value came to 171; the “Relative β1-receptor inhibition” value is reported as 4.6; the “Quotient, on basis” value was found to be 1.5. In addition, in assay [2], the ED50 worked out at 1.8 mg/kg and the “Relative β2-receptor inhibition” value is on record as 6.8.

Consider `CC(=O)Nc1ccc(OCC(O)CNC(C)CC(O)c2ccc(C)nc2)cc1` (centres unmarked) [1-(p-Acetamino-phenoxy)-3-(1-[6-methyl-pyridyl-3]-1-hydroxy-butyl-(3)-amino)-propan-2-ol], for which, in assay [1], the ED50 was 0.012 mg/kg; the “Quotient: ED 50 β2-receptor inhibition / ED 50 β1-receptor inhibition” value is recorded as 165; the “Relative β1-receptor inhibition” value came out at 5.04; the “Quotient, on basis” value was determined as 1.5. In addition, in assay [2], the ED50 came out at 1.99 mg/kg and the “Relative β2-receptor inhibition” value is listed as 7.5.

For the compound `CCCCOc1ccc(OCC(O)CNC(C)CC(O)c2ccc(C)nc2)cc1` (centres unmarked) [1-(4n-Butoxy-phenoxy)-3-(1-[6-methyl-pyridyl-3]-1-hydroxy-butyl-(3)-amino)-propan-2-ol], in assay [1], the ED50 is 0.067 mg/kg; the “Quotient: ED 50 β2-receptor inhibition / ED 50 β1-receptor inhibition” value was 487; the “Relative β1-receptor inhibition” value was found to be 28.2; the “Quotient, on basis” value worked out at 4.4. Moreover, in assay [2], the ED50 is 32.7 mg/kg and the “Relative β2-receptor inhibition” value amounted to 123.2.
